Here are results for two molecules from patent US20060073516A1, “Novel screening method” (priority 2002, published 2006).

One assay concerns the target T1, rCB7T084 (Rattus norvegicus, UniProt Q7TN41, R55S).
T1 construct: expressed in transfected cells; host or cells: CHO cells
T1 sequence (Q7TN41 1-319 R55S): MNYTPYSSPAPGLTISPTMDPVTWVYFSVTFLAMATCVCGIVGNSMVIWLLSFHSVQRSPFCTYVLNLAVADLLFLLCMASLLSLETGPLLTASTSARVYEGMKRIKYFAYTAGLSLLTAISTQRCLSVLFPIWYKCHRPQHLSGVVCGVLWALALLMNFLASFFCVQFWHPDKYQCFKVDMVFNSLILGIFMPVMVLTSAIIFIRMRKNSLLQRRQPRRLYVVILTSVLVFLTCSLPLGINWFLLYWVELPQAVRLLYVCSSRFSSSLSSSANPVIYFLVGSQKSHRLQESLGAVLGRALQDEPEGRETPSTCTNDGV
Kind of assay: Suppression of forskolin-increased intracellular cAMP level in rCB7T084-expressed CHO cells. The assay is classed as cell-based. The note with it: 1 μM forskolin, ligand 1.0×10^−3 M-3.0×10^−7 M, compared to mock CHO cells (FIG. 6, FIG. 7). As to the method: (§1) The TGR7- and rCB7T084-expressed CHO cells were washed with assay medium (HBSS (GibcoBRL) supplemented with 0.1% bovine serum albumin and 0.2 mM IBMX). Thereafter, the cells were incubated at 37° C. for 30 minutes under 5% CO2 conditions. β-Alanine (1.0×10^−3 M-3.0×10^−7 M) and L-carnosine (1.0×10^−3 M-3.0×10^−7 M) diluted with the assay medium in various concentrations were added and forskokin was then added thereto in 1 μM. The cells were incubated at 37° C. for 30 minutes under 5% CO2 conditions. The culture supernatant was discarded and the intracellular cAMP level was determined on a plate reader (ARVO multi-label counter, Wallac, Inc.), following the protocol of cAMP Screen Kit (Applied Biosystems, Inc.).
For orientation: Cyclic AMP is a second messenger, typically raised through Gs and lowered through Gi signalling.

Assay [1] addresses T2, TGR7 (Homo sapiens, UniProt Q8TDS7). Kind of assay: Suppression of forskolin-increased intracellular cAMP level in TGR7-expressed CHO cells. Also on record: expressed in transfected cells; host or cells: CHO cells. To be noted: 1 μM forskolin, ligand 1.0×10^−3 M-3.0×10^−7 M, compared to mock CHO cells (FIG. 6, FIG. 7). The assay is classed as cell-based. How it is done: as §1

The subject of assay [2] is CHO-K1 cells into which the expression vector alone was introduced. To be noted: control CHO-K1 cells, expression vector alone (no insert); FLIPR (FIG. 3). As to the method: (§2) The CHO-K1 cell line was cultured in HAM F-12 medium (Invitrogen) containing 10% fetal calf serum (Invitrogen), unless otherwise indicated. A day before transfection, 4.5×10^5 cells per 10 cm^2 were plated, followed by incubation in a CO2 incubator adjusted to a concentration of 5% CO2 at 37° C. for at least 15 hours. Using Lipofectamine reagent (Invitrogen), transfection was carried out by modifications of the method attached to the reagent. When a 6-well plate was used for the incubation, the following procedures were performed. First, 2 tubes each having a 1.5 ml volume were prepared and 100 μl each of Opti-MEM medium (Invitrogen) was dispensed in each tube. Next, 1 μg of the expression vector was charged in one tube and in another tube, 6 μl of Lipofectamine reagent was charged, which were mixed together. The mixture was settled for 20 minutes at room temperature. To the solution, 800 μl of Opti-MEM medium was added and the resulting solution mixture for transfection was added to the CHO-K1 cells, which had been previously washed with Opti-MEM medium. Then, the cells were incubated in a CO2 incubator for 6 hours. After the incubation, the cells were rinsed with PBS (Invitrogen), then scraped using 0.05% trypsin-EDTA solution (Invitrogen) and recovered by centrifugal operation. The cells obtained were counted and diluted to 5×10^4 cells per 200 μl of the medium. The dilution was dispensed onto a Black walled 96-well plate (Costar) in 200 μl each per well, followed by incubation overnight in a CO2 incubator. Various test samples were added to the CHO-K1 cells in which the receptor was transiently expressed by the transfection operation described above, whereby changes in the intracellular calcium ion level were determined using FLIPR (Molecular Device). In order to determine the changes in the intracellular calcium ion level on FLIPR, the cells were pre-teated by the following procedures. […] Following the pre-treatment above, changes in intracellular calcium level after addition of various test samples were measured on FLIPR.

The target of assay [3] is T2, TGR7. To be noted: β-alanine added in 10^−4 M to 10^−5 M; CHO-K1 cells expressing human TGR7; FLIPR, Fluo-3AM (FIG. 1). As to the method: as §2
The next assay has as its target rat rCB7T084 (Rattus norvegicus, UniProt Q7TN41, R55S). To be noted: β-alanine added in 10^−4 M to 10^−5 M; CHO-K1 cells expressing rat rCB7T084; FLIPR, Fluo-3AM (FIG. 2). How it is done: as §2

Each structure is given as a SMILES string.

T2 sequence (Q8TDS7 whole entry): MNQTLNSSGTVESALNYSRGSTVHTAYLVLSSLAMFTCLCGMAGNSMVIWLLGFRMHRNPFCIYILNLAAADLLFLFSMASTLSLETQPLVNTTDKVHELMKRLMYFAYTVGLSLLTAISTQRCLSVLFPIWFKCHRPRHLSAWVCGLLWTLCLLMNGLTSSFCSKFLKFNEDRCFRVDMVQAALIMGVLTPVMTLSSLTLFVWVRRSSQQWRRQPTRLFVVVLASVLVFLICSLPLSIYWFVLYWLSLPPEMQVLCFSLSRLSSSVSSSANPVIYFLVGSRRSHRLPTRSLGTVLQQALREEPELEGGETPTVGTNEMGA

For the molecule `NCCC(=O)N[C@@H](Cc1cnc[nH]1)C(=O)O` [L-carnosine], the “decrease of the intracellular cAMP level increased by forskolin addition” value on rCB7T084 was “dose-dependent and specific decrease”; at TGR7 [1] it was “dose-dependent and specific decrease”.
Regarding `NCCC(=O)O` [β-alanine], the “response (increase in the intracellular calcium level)” value is “such response was not observed” in assay [2], “specifically responsive” at TGR7 [3] and “specifically responsive” on rat rCB7T084. In addition, the “decrease of the intracellular cAMP level increased by forskolin addition” value at rCB7T084 is “dose-dependent and specific decrease”; at TGR7 [1], “dose-dependent and specific decrease”.
